Experimental data as given in patent US12692509B2, “Methods for generating new genes in organism and use thereof” (Qingdao Kingagroot Chemical Compound Co., Ltd., priority 2019, dated 2026).

Tests used:
wild-type Huaidao No. 5 [1] = experiment: Herbicide resistance test of T1 generation seedlings, spraying: wild-type control; format: in vivo, rice; conditions: 5 days after application
Description: (§1) The herbicide resistance test was performed on the T1 generation of the QY2234/H5-851 PPO1 inversion lines at seedling stage. The wild-type Huaidao No. 5 was used as a control, and planted simultaneously with the T1 generation seeds of the inversion lines. When the seedlings reached a plant height of 15 cm, 2081 was applied by spraying at four levels of 0.3, 0.6, 0.9 and 1.2 g a.i./mu. The culture conditions were 28° C., with 16 hours of light and 8 hours of darkness.

[2] = test system: QY2234 T0 generation PPO1 inversion strain; experiment: PPO inhibitory herbicide resistance test, T0 generation, spray application: PPO1 inversion lines; format: in vivo, rice
From the text: (§2) Transformation seedlings of QY2234 T0 generation identified as inversion event-positive were transplanted into large plastic buckets in the greenhouse to grow seeds of T1 generation. There were a large number of positive seedlings, so some T0 seedlings and wild-type control lines with similar growth period and status were selected. When the plant height reached about 20 cm, the herbicide resistance test was directly carried out. The herbicide used was a high-efficiency PPO inhibitory herbicide [drawing 1] produced by the company (code 2081, see […] Patent Application for Invention No. 202010281666.4). In this experiment, the herbicide was applied at the gradients of three levels, namely 0.18, 0.4, and 0.6 g ai/mu, by a walk-in type spray tower.

wild-type Huaidao No. 5 [3] = experiment: PPO inhibitory herbicide resistance test, T0 generation, spray application: wild-type control; format: in vivo, rice; conditions: 0.18, 0.4 and 0.6 g ai/mu
From the text: as §2

[4] = test system: QY2234/H5-851 T1 seedlings; experiment: Herbicide resistance test of T1 generation seedlings, spraying: PPO1 inversion line; format: in vivo, rice; conditions: 5 days after application
Description: as §1

[5] = test system: Plants containing the new EPSPS gene; experiment: Herbicide bioassay on plants containing the new EPSPS gene; format: in vivo; conditions: rice plants from Agrobacterium-transformed calli
From the text: These vectors were transferred into Agrobacterium for transforming calli of rice. Plants containing the new EPSPS gene were obtained.

[6] = test system: T1 generation of the QY2091 HPPD doubled strain; experiment: Herbicide resistance test at seedling stage, germination on 1/2 MS medium with herbicide: T1 of HPPD doubled strain; format: in vivo, rice; conditions: 1.2 μM in 1/2 MS medium, 10 days; lines QY2091-7, 13, 20, 22
Description: (§3) The herbicide resistance of the T1 generation of the QY2091 HPPD doubled strain was tested at the seedling stage. After the T1 generation seeds were subjected to surface disinfection, they germinated on ½ MS medium containing 1.2 μM Shuangzuocaotong, and cultivated at 28° C., 16 hours light/8 hours dark, in which wild-type Jinjing 818 was used as a control.

wild-type Jinjing 818 [7] = experiment: Herbicide resistance test at seedling stage, germination on 1/2 MS medium with herbicide: wild-type control; format: in vivo, rice; conditions: 1.2 μM in 1/2 MS medium, 10 days of cultivation in light
Description: as §3

[8] = test system: QY2091 T0 generation HPPD gene doubling strain; experiment: Herbicide resistance test, T0 generation, spray application: HPPD doubling strains; format: in vivo, rice; conditions: for phenotype of HPPD doubling event strains after application: 2, 4, 8 and 32 g a.i./mu
Description: (§4) The transformation seedlings of T0 generation identified as doubling event positive were transplanted into large plastic buckets in the greenhouse for expanding propagation to obtain seeds of T1 generation. After the seedlings began to tiller, the tillers were taken from vigorously growing strains, and planted in the same pots with the tillers of the wild-type control varieties at the same growth period. After the plant height reached about 20 cm, the herbicide resistance test was conducted. The herbicide used was Shuangzuocaotong (CAS No. 1622908-18-2) produced by our company, and its field dosage was usually 4 grams of active ingredients per mu (4 g a.i./mu). In this experiment, Shuangzuocaotong was applied at a dosage gradient of 2 g a.i./mu, 4 g a.i./mu, 8 g a.i./mu and 32 g a.i./muwith a walk-in spray tower.

wild-type Jinjing 818 [9] = experiment: Herbicide resistance test, T0 generation, spray application: wild-type control; format: in vivo, rice; conditions: 2, 4, 8 and 32 g a.i./mu
Description: as §4

[10] = T0 generation, versus wild type

COC(=O)[C@@H](C)O/N=C/c1cc(-n2c(=O)cc(C(F)(F)F)n(C)c2=O)c(F)cc1Cl [compound 2081]
phytotoxicity on wild-type control rice seedlings (wild-type Huaidao No. 5 [1]; 0.3 g a.i./mu): obvious phytotoxicity
phytotoxicity on wild-type control (wild-type Huaidao No. 5 [1]; 0.6 and 0.9 g ai/mu): substantially died off
phytotoxicity on wild-type control rice seedlings (wild-type Huaidao No. 5 [1]; 0.6 g a.i./mu): the plants died quickly
phytotoxicity on wild-type control plants (wild-type Huaidao No. 5 [1]; 1.2 g a.i./mu): all dead
phenotype of most lines of the PPO1 inversion event after application ([2]; 3-5 days after application, 0.18, 0.4 and 0.6 g ai/mu): maintained normal growth, the leaves had no obvious phytotoxicity
tolerance of PPO1 inversion lines to the herbicide [2, 10]: significantly improve the tolerance
phenotype of most inversion event strains after application ([2]; two weeks after application, 0.18, 0.4 and 0.6 g ai/mu): continued to remain green and grew normally
phenotype of wild-type control rice seedlings after application (wild-type Huaidao No. 5 [3]; 3-5 days after application): began to wither from tip of leaf, necrotic spots appeared on the leaves, and the plants gradually withered
phenotype of wild-type rice seedlings after application (wild-type Huaidao No. 5 [3]; two weeks after application): died
phytotoxicity on QY2234/H5-851 T1 seedlings ([4]; 0.3 g a.i./mu): maintain normal growth
phytotoxicity on QY2234/H5-851 T1 seedlings ([4]; 0.6 and 0.9 g ai/mu): most T1 seedlings could keep green and continue to grow
phytotoxicity on QY2234/H5-851 T1 seedlings ([4]; 1.2 g a.i./mu): some of the T1 seedlings could keep green and continue to grow

O=C(O)CNCP(=O)(O)O [glyphosate]
resistance of plants containing the new EPSPS gene to the herbicide [5]: obvious resistance

Cc1nn(C)cc1C(=O)Oc1c(C(=O)c2ccc(C(F)(F)F)cc2S(C)(=O)=O)c(C)nn1C [Shuangzuocaotong]
phenotype of green T1 seedlings of HPPD doubling lines [6]: continued to remain green and grew normally
phenotype of wild-type control rice seedlings (wild-type Jinjing 818 [7]): almost all albino
phenotype of HPPD doubling event strains after application ([8]; 4 weeks after application): all continued to remain green and grew normally
phenotype of HPPD doubling event strains after application ([8]; 5-7 days after application): all remained normally green
tolerance of HPPD gene-doubled strains to the herbicide [8, 10]: significantly improved tolerance
resistance of plants to the HPPD inhibitory herbicide ([8]; T0 transformed seedlings, field dosage 4 g a.i./mu): up to 8 times the field dose
phenotype of wild-type rice seedlings after application (wild-type Jinjing 818 [9]; 4 weeks after application): close to death
phenotype of wild-type control rice seedlings after application (wild-type Jinjing 818 [9]; 5-7 days after application, spray tower): began to show albino
